This note sets out measurements from paper PMC10004634 (PLOS ONE, 2023).

One assay has as its target FYN (Homo sapiens, UniProt P06241). Briefly: mobility shift assay (MSA).
For another assay, the target named is BLK (Homo sapiens, UniProt P51451). As to the kind of experiment: Z'-Lyte kinase inhibition assay. It counts as biochemical. Also on record: purchased Thermo Fisher Scientific (Invitrogen Z'-Lyte service). The note with it: 60 min preincubation. The protocol:
In all the assays, each test compound was preincubated with peptide/kinase mixture or kinase/antibody mixture for 60 min at room temperature before adding the ATP solution or AlexaFluor labeled Tracer to initiate the 60-min incubation of the reactants.

In another assay the target is LCK (Homo sapiens, UniProt P06239). As to the kind of experiment: mobility shift assay (MSA).
For assay [1], the target named is T1, RPS6KA5(Kin.Dom.1-N-terminal) (Homo sapiens, UniProt O75582).
T1 construct: Kin.Dom.1-N-terminal
As to the kind of experiment: biochemical. Also noted: KINOMEscan scanMAX competition binding, DNA-tagged kinases, qPCR read-out, percent control at 300 nM.

In another assay the target is EGFR(L858R,T790M) (Homo sapiens, UniProt P00533, L858R/T790M). As to the kind of experiment: biochemical. Also on record: KINOMEscan scanMAX competition binding, DNA-tagged kinases, qPCR read-out, percent control at 300 nM.
For assay [2], the target named is T2, ABL1(E255K)-phosphorylated (Homo sapiens, UniProt P00519, E255K).
T2 construct: phosphorylated
T2 sequence (P00519 whole entry E255K): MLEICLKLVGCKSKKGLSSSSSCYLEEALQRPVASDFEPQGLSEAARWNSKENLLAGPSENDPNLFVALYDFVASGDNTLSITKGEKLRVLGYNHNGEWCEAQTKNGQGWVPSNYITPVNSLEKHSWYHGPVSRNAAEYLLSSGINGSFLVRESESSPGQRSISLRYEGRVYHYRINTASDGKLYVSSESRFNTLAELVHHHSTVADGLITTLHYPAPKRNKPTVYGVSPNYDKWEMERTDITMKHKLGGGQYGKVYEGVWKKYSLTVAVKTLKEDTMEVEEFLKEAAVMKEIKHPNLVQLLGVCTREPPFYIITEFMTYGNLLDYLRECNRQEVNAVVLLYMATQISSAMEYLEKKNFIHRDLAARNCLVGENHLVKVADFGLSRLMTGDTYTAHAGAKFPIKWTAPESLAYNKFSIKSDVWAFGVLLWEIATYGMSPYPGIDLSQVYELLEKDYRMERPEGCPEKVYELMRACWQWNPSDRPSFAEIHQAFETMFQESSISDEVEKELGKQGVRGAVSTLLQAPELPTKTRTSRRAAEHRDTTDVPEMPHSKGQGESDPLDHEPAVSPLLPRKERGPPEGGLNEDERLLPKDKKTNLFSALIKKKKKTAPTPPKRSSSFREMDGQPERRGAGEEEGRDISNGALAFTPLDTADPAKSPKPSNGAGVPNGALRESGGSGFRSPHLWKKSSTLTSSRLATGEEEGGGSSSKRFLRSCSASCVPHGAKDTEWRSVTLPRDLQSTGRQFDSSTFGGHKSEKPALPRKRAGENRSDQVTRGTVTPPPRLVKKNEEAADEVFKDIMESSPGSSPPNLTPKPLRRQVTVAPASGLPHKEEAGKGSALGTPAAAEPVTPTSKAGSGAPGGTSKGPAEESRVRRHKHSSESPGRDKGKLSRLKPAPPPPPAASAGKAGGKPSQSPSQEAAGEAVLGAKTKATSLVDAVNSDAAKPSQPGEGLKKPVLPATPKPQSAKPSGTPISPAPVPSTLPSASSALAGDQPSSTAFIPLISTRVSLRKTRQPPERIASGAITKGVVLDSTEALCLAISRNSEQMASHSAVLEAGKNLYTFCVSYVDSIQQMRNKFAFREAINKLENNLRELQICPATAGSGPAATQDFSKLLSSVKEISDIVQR
As to the kind of experiment: biochemical. Also noted: KINOMEscan scanMAX competition binding, DNA-tagged kinases, qPCR read-out, percent control at 300 nM.

The target in a further assay is AKT2 (Homo sapiens, UniProt P31751). As to the kind of experiment: biochemical. Also on record: KINOMEscan scanMAX competition binding, DNA-tagged kinases, qPCR read-out, percent control at 300 nM.
The target in the next assay is FGFR4 (Homo sapiens, UniProt P22455). Briefly: biochemical. Also on record: KINOMEscan scanMAX competition binding, DNA-tagged kinases, qPCR read-out, percent control at 300 nM.
The target of a further assay is T3, GCN2(Kin.Dom.2,S808G) (Homo sapiens, UniProt Q9P2K8, S808G).
T3 construct: gene EIF2AK4; Kin.Dom.2
As to the kind of experiment: biochemical. Also noted: KINOMEscan scanMAX competition binding, DNA-tagged kinases, qPCR read-out, percent control at 300 nM.

Another assay concerns the target TRPM6 (Homo sapiens, UniProt Q9BX84). Briefly: biochemical. Also noted: KINOMEscan scanMAX competition binding, DNA-tagged kinases, qPCR read-out, percent control at 300 nM.
The target of the next assay is EPHB4 (Homo sapiens, UniProt P54760). Briefly: biochemical. Also noted: KINOMEscan scanMAX competition binding, DNA-tagged kinases, qPCR read-out, percent control at 300 nM.
In another assay the target is MKNK2 (Homo sapiens, UniProt Q9HBH9). As to the kind of experiment: biochemical. Also on record: KINOMEscan scanMAX competition binding, DNA-tagged kinases, qPCR read-out, percent control at 300 nM.
Chain of MKNK2 (Q9HBH9 whole entry): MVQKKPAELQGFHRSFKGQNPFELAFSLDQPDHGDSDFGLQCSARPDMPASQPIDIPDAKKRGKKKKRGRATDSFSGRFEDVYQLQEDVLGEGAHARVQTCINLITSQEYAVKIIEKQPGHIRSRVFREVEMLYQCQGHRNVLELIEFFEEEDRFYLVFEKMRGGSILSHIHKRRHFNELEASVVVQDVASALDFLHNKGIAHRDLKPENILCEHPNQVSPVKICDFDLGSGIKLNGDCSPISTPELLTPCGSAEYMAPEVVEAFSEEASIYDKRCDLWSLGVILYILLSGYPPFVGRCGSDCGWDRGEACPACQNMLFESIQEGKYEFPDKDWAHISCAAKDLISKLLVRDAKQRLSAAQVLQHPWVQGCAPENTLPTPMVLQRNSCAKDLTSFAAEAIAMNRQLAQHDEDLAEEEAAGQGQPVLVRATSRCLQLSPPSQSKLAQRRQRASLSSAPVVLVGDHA
A further assay deals with T4, LKB1 (Homo sapiens, UniProt Q15831).
T4 construct: gene STK11
T4 sequence (Q15831 whole entry): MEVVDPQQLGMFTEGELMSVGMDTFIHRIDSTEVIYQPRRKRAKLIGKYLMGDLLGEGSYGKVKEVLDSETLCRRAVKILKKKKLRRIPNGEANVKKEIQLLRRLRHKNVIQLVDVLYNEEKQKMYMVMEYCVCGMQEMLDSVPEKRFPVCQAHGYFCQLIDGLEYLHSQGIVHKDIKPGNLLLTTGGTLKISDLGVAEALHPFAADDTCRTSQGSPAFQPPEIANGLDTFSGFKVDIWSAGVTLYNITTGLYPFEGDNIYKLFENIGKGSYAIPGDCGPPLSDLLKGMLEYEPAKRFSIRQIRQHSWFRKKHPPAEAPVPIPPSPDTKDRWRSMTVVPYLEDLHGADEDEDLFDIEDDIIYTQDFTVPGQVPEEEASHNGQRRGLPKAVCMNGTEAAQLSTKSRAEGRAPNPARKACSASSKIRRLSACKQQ
As to the kind of experiment: biochemical. Also noted: KINOMEscan scanMAX competition binding, DNA-tagged kinases, qPCR read-out, percent control at 300 nM.

The target in another assay is PIP5K1A (Homo sapiens, UniProt Q99755). Briefly: biochemical. Also noted: KINOMEscan scanMAX competition binding, DNA-tagged kinases, qPCR read-out, percent control at 300 nM.
In another assay the target is EPHB3 (Homo sapiens, UniProt P54753). Briefly: biochemical. Also noted: KINOMEscan scanMAX competition binding, DNA-tagged kinases, qPCR read-out, percent control at 300 nM.
A further assay concerns the target T5, YSK4 (Homo sapiens, UniProt Q56UN5).
T5 construct: gene MAP3K19
Briefly: biochemical. Also on record: KINOMEscan scanMAX competition binding, DNA-tagged kinases, qPCR read-out, percent control at 300 nM.

The target in a further assay is SGK3 (Homo sapiens, UniProt Q96BR1). As to the kind of experiment: biochemical. Also on record: KINOMEscan scanMAX competition binding, DNA-tagged kinases, qPCR read-out, percent control at 300 nM.
The target in a further assay is T6, OSR1 (Homo sapiens, UniProt O95747).
T6 construct: gene OXSR1
T6 sequence (O95747 whole entry): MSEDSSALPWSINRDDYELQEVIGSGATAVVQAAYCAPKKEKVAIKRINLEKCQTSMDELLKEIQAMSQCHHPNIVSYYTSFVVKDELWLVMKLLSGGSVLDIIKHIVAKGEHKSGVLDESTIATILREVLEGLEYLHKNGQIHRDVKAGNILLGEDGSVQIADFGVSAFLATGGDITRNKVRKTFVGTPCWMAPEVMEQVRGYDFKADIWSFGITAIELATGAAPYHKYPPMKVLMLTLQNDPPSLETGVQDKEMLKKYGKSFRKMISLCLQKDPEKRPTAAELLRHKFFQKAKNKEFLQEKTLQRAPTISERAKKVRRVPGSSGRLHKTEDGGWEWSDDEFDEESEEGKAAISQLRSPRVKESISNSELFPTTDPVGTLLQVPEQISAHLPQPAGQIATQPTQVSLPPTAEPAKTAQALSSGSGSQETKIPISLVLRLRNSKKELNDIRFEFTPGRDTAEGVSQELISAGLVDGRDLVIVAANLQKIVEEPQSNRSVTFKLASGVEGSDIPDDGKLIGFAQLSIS
As to the kind of experiment: biochemical. Also on record: KINOMEscan scanMAX competition binding, DNA-tagged kinases, qPCR read-out, percent control at 300 nM.

Another assay addresses PRKD1 (Homo sapiens, UniProt Q15139). As to the kind of experiment: biochemical. Also noted: KINOMEscan scanMAX competition binding, DNA-tagged kinases, qPCR read-out, percent control at 300 nM.
The next assay addresses TBK1 (Homo sapiens, UniProt Q9UHD2). As to the kind of experiment: biochemical. Also on record: KINOMEscan scanMAX competition binding, DNA-tagged kinases, qPCR read-out, percent control at 300 nM.
The next assay deals with MAP3K15 (Homo sapiens, UniProt Q6ZN16). As to the kind of experiment: biochemical. Also on record: KINOMEscan scanMAX competition binding, DNA-tagged kinases, qPCR read-out, percent control at 300 nM.
The target in the next assay is TLK1 (Homo sapiens, UniProt Q9UKI8). As to the kind of experiment: biochemical. Also noted: KINOMEscan scanMAX competition binding, DNA-tagged kinases, qPCR read-out, percent control at 300 nM.
Another assay deals with T7, p38-beta (Homo sapiens, UniProt Q15759).
T7 construct: gene MAPK11
As to the kind of experiment: biochemical. Also on record: KINOMEscan scanMAX competition binding, DNA-tagged kinases, qPCR read-out, percent control at 300 nM.

[3] abbreviates: read-out: Percent control / Tirabrutinib.
Setting [4] is: read-out: Percent control / Acalabrutinib.
Where [5] appears, read: read-out: Percent control / Ibrutinib.
The mark [6] stands for this setting: read-out: Percent control / Zanubrutinib.

Like-named read-outs stand apart in the source and are kept apart here.

Chain of PRKD1 (Q15139 whole entry): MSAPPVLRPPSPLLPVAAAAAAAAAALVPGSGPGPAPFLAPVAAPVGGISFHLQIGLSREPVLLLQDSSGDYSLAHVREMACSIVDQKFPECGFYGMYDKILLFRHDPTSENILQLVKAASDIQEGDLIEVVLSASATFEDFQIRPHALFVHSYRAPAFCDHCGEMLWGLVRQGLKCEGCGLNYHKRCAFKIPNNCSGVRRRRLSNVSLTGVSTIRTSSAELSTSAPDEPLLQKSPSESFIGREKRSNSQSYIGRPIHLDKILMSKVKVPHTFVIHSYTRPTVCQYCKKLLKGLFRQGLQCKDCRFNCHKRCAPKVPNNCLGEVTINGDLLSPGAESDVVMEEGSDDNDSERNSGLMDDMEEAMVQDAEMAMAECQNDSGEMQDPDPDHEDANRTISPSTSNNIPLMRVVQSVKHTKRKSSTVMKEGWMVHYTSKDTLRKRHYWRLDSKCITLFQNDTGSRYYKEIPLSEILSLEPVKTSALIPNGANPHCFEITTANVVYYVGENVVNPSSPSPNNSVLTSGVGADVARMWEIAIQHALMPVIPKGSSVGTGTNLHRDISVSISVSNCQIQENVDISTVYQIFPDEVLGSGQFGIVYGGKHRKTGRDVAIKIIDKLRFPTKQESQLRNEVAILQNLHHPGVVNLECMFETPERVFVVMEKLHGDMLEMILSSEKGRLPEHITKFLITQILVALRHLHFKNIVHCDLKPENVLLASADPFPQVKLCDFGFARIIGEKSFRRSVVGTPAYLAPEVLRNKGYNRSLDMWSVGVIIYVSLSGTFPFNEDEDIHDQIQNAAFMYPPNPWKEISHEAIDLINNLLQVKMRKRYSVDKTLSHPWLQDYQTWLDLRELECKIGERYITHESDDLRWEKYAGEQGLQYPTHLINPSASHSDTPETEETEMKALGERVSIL
T5 sequence (Q56UN5 whole entry): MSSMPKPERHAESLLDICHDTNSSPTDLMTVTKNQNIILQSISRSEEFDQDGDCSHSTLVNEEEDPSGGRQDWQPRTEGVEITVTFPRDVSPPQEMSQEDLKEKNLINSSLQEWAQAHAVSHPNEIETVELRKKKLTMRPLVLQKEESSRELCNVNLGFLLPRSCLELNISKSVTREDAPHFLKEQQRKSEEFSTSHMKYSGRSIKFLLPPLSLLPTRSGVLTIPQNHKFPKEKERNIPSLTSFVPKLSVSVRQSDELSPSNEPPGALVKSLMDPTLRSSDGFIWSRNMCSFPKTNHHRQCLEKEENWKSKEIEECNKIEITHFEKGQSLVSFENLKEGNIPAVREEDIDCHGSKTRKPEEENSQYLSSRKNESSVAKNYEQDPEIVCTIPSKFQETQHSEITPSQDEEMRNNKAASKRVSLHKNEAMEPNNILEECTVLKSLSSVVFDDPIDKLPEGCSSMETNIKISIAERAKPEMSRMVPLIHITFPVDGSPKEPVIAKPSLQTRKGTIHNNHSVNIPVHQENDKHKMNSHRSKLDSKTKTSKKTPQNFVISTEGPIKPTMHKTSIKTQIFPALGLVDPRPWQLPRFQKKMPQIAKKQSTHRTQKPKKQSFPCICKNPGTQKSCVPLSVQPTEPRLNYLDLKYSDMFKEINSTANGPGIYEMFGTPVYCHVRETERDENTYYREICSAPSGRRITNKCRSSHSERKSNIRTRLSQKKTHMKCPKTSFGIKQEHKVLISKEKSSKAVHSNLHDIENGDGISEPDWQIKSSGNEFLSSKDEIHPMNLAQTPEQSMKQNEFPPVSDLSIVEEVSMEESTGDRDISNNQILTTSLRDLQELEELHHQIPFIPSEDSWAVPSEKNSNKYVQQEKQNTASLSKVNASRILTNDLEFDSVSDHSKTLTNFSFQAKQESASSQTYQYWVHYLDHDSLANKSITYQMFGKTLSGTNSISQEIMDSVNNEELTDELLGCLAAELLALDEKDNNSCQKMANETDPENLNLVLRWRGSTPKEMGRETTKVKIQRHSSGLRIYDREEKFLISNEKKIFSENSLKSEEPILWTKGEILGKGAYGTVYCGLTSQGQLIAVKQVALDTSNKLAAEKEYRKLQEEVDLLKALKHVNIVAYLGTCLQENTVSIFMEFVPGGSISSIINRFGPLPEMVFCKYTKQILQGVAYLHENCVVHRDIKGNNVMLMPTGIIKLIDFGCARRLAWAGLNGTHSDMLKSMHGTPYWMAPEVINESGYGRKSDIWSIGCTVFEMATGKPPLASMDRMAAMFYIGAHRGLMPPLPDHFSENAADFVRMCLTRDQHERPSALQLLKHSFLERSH

In the case of `CC#CC(=O)N1CC[C@@H](n2c(=O)n(-c3ccc(Oc4ccccc4)cc3)c3c(N)ncnc32)C1` [Tirabrutinib], the concentration for half-maximal inhibition (IC50) at FYN amounted to 2220 nM; against BLK, 1280 nM; at LCK, 788 nM. For the same compound, the remaining binding at 0.3 µM in [1] (setting [3]) was found to be 80%; at EGFR(L858R,T790M) (setting [3]), 100%.
Take `CC#CC(=O)N1CCC[C@H]1c1nc(-c2ccc(C(=O)Nc3ccccn3)cc2)c2c(N)nccn12` [Acalabrutinib]: the results for the IC50 on FYN, against BLK and on LCK were greater than 10000 nM, 2270 nM and 5200 nM, respectively. Further, the remaining binding at 0.3 µM in assay [2] (setting [4]) was found to be 95%; on AKT2 (setting [4]), 87%; at FGFR4 (setting [4]) it was 91%; at GCN2(Kin.Dom.2,S808G) (setting [4]) it was 91%; at TRPM6 (setting [4]), 96%; on EGFR(L858R,T790M) (setting [4]) it was 97%. Further, the remaining binding at 0.3 µM on EPHB4 (setting [4]) amounted to 93%; on MKNK2 (setting [4]), 93%; on LKB1 (setting [4]) it was 94%; on PIP5K1A (setting [4]), 83%; at EPHB3 (setting [4]), 91%; on YSK4 (setting [4]), 74%. Also, the remaining binding at 0.3 µM at SGK3 (setting [4]) is 94%; at OSR1 (setting [4]) it was 92%; at PRKD1 (setting [4]), 95%; at TBK1 (setting [4]), 91%.
Consider `C=CC(=O)N1CCC[C@@H](n2nc(-c3ccc(Oc4ccccc4)cc3)c3c(N)ncnc32)C1` [Ibrutinib], for which the remaining binding at 0.3 µM amounted to 96% at MAP3K15 (setting [5]), 80% on TLK1 (setting [5]) and 85% on p38-beta (setting [5]).
For the compound `C=CC(=O)N1CCC([C@@H]2CCNc3c(C(N)=O)c(-c4ccc(Oc5ccccc5)cc4)nn32)CC1` [Zanubrutinib], the remaining binding at 0.3 µM in assay [2] (setting [6]) came to 80%; on AKT2 (setting [6]), 82%; on FGFR4 (setting [6]), 91%; in assay [1] (setting [6]) it was 100%; on GCN2(Kin.Dom.2,S808G) (setting [6]), 100%; at TRPM6 (setting [6]), 63%. Further, the remaining binding at 0.3 µM at EPHB4 (setting [6]) is 87%; at MKNK2 (setting [6]), 84%; on MAP3K15 (setting [6]), 54%; on LKB1 (setting [6]), 84%; on PIP5K1A (setting [6]) it was 92%; at EPHB3 (setting [6]) it was 96%. Also, the remaining binding at 0.3 µM stood at 100% at YSK4 (setting [6]); 92% at TLK1 (setting [6]); 74% on SGK3 (setting [6]); 100% at OSR1 (setting [6]); 82% at PRKD1 (setting [6]); 82% on p38-beta (setting [6]). Besides, the remaining binding at 0.3 µM on TBK1 (setting [6]) is 93%.

As usually defined, the IC50 is the concentration needed to halve the response being measured.
